Reference: US12017917B2, “Composition, particulate materials and methods for making particulate materials” (THE UNIVERSITY OF QUEENSLAND, priority 2015, dated 2024)

Experiments:
[1] = system: Escherichia coli (E. coli); assay: In vitro antibacterial activity of VAN formulations (OD 600 nm); format: cell-based; conditions: VAN content 25 μg ml^−1, after 18 h
Procedure: The use of nanoparticles as a delivery vehicle for antibiotics provides a promising strategy through prolonged drug circulation half-life, increased availability of drugs interacting with membrane molecules and promoted sustained drug release. VAN is an antibiotic useful for the treatment of a number of bacterial infections since it inhibits the cell wall synthesis in susceptible bacteria. […] The in vitro antibacterial activity of VAN, MHS200-VAN and RMHS200-VAN was evaluated by monitoring the optical density (OD) at 600 nm of a bacterial suspension. E. coli (1×10^6 CFU mL^−1) was incubated in Luria-Bertani (LB) medium in a 1.5 ml centrifuge tube at various concentrations of VAN for 18 h. […] This value reduced to 20 μg ml^−1 for RMHS200-VAN which is lower than the dosage used with VAN conjugated MCM-41 (200 μg ml^−1) in in-vitro E. coli culture at 18 h. In a separate experiment, MHS200-VAN, RMHS200-VAN and free VAN with the same VAN content of 25 μg ml^−1 were incubated with 1×10^6 CFU mL^−1 E. Coli in LB media and OD was measured as a function of time.

[2] = UV protection of ivermectin (HPLC); format: physicochemical; conditions: free or loaded into particles, UV irradiation 3 h
Procedure: To investigate the UV protection properties of the silica particles toward ivermectin these nano-formulations as well as pure (free) ivermectin were treated under UV irradiation for 3 h. The samples before and after UV irradiation were analysed using high performance liquid chromatography (HPLC) to identify their compositions. […] This may result from the fact that ivermectin is only partially loaded into the internal cavity of the MSHS-SS particles, resulting in only partial protection.

E. coli [3] = assay: Long-term bacterial inhibition, bacteria kinetic test under batch culture; format: cell-based; conditions: lysozyme 700 μg·mL^−1, 3 days
E. coli [4] = assay: In vitro antibacterial activity of lysozyme formulations (OD); format: cell-based; conditions: E. coli 5×10^6 CFU mL^−1, 24 h
Procedure: The in vitro antibacterial activity of free lysozyme and lysozyme loaded silica particles formulated using the above procedure were compared by the optical density (OD) measurement. E. coli (5×10^6 CFU mL^−1) was incubated with various concentrations of lysozyme and corresponding lysozyme loaded silica particles for 24 h. […] In contrast, the MIC of free lysozyme towards E. coli cannot be achieved even at the concentration as high as […].

[5] = Release test of nano-spinosad in water (UV-Vis 248 nm); format: physicochemical; conditions: 25° C.
Procedure: In a release test, 2.67 mg nano-spinosad-X (containing 1 mg spinosad) was dispersed in 1 ml distilled water, respectively. The mixtures were kept at 25° C. incubator at 200 rpm. The supernatants were collected at different time and the released amount of spinosad was measured and evaluated by using a UV-Vis spectrophotometer at a wavelength of 248 nm. The release amount of pure spinosad in water was also tested using the same procedure.
The release profile of both pure spinosad and nano-spinosad were tested in water. […] On the other hand, for pure spinosad, only 2.4% of spinosad was released at 5 min while the cumulative release is less than 8% even at 540 min. […] Consequently, the release behaviour of spinosad is improved compared to the pure spinosad. The fast release of a higher concentration of spinosad is expected to be beneficial for the development of an “effective-immediately” nano-spinosad formulation.

[6] = system: cattle tick, Rhipicephalus microplus; assay: Larval Immersion Test on cattle tick larvae; format: in vivo; conditions: Assay 3, 24 h
Procedure: The in vitro effects of spinosad and nano-spinosad on the cattle tick, Rhipicephalus microplus were evaluated. The test was conducted at Biosecurity Sciences Laboratory (Queensland Government) using a standard Larval Immersion Test using organic solvent to extract the actives.
The test was conducted at Biosecurity Sciences Laboratory (Queensland Government) using a standard Larval Immersion Test. In the Larval Immersion Test, both spinosad and nano-Spinsad were firstly dissolved in organic solvent (2% Triton X-100 in acetone) to extract the actives for stock solution (10 mg/ml) and then be diluted in water. […] Three assays were conducted to narrow the LC ranges.

[7] = UV-stability test of nano-spinosad (HPLC); format: physicochemical; conditions: UV 365 nm, 2 h
Procedure: In this test, 1.2 mg pure spinosad and 4.2 mg nano-spinosad-0.4 (containing 1.2 mg spinosad) were added in two transparent quartz containers, respectively. The using of quartz containers is to minimized the shielding of UV light from the containers. Each of the sample was placed under the UV light with a wavelength of 365 nm and power of 17.77 mV cm^−3. All samples were irradiated by the UV light for 2 hours. After the irradiation, the spinosad and its degradation products were extracted by acetonitrile (ACN) for three times and the final concentration was diluted to. 0.5 mg/ml dispersed in 1 ml distilled water. The UV degradation conditions of both pure spinosad and nano-spinosad-0.4 were tested by high-performance liquid chromatography (HPLC) using ACN as the mobile phase.
The UV stability of nano-spinosad was studied. Both spinosad and nano-spinosad were irradiated under UV light (wavelength 365 nm, 17.77 mV/cm^3) for 2 h followed by HPLC which was used to monitor the product after UV treatment utilizing ACN as the extraction media and mobile phase. […] An additional peak at retention time of 1.5 min was also observed in the pure spinosad group, which can be attributed to the degraded product. This observation is in accordance with literature reports, indicating spinosad itself is UV labile.

With CN[C@H](CC(C)C)C(=O)N[C@H]1C(=O)N[C@@H](CC(N)=O)C(=O)N[C@H]2C(=O)N[C@H]3C(=O)N[C@H](C(=O)N[C@H](C(=O)O)c4cc(O)cc(O)c4-c4cc3ccc4O)[C@H](O)c3ccc(c(Cl)c3)Oc3cc2cc(c3O[C@@H]2O[C@H](CO)[C@@H](O)[C@H](O)[C@H]2O[C@H]2C[C@](C)(N)[C@H](O)[C@H](C)O2)Oc2ccc(cc2Cl)[C@H]1O [free VAN, vancomycin] the “bacterial growth over time (OD)” value [1] was “re-growth of bacteria”.

In the case of ivermectin [Free ivermectin], the “degradation of ivermectin after UV irradiation (HPLC)” value [2] is reported as “fully degraded”.

With lysozyme [free lysozyme] the “bacterial growth over time (OD)” value (E. coli [3]) was “time dependent bacterial growth” and the “MIC towards E. coli” value (E. coli [4]) was greater than 2 mg.

With spinosad the spinosad released ([5]; at 5 min) was 2.4%, the “cumulative release of spinosad” value ([5]; at 540 min) was “less than 8%” and the “LC50 value to larval cattle ticks” value [6] was 54 ppm. For the same compound, the “LC99 value to larval cattle ticks” value [6] was 196 ppm and the “UV degradation (HPLC degradation peak)” value [7] was “UV labile”.
